Results on seven compounds are retold here after patent US4361563A, “Pyridazinone-substituted benzimidazoles and salts” (priority 1978, dated 1982).

One series concerns thrombocyte aggregation. The experiment in a line: Determination of the thrombocyte aggregation according to Born and Cross (collagen-provoked, platelet-rich plasma). It is filed as cell-based, healthy test persons. Particulars: collagen-induced aggregation. The procedure:
TEST 1. DETERMINATION OF THE THROMBOCYTE AGGREGATION ACCORDING TO BORN AND CROSS [J. PHYSIOL. 170, 397 (1964)].
The thrombocyte aggregation was measured in platelet-rich plasma of healthy test persons. The decrease of the optical density was photometrically measured and recorded after addition of commercial collagen (Sigma, St. Louis, Mo., USA) which contained […] of collagen-fibrils per ml. The velocity of aggregation (Vmax) was determined by the angle of inclination of the density curve. The point of the curve, where the most light was transmitted, served for the determination of the optical density (o.d.). To provoke maximum aggregation, approximately 0.01 ml of the collagen solution was added to 1 ml of platelet-rich plasma.

A further series has as its system cats. The experiment in a line: Determination of the hypotensive and positive inotropic activity in the cat. Format: in vivo. Conditions: for change in vivo at 0.1 mg/kg / change in vivo at 0.5 mg/kg: Felis catus, iv, read-out: Change of dp/dt in %. Here is the method: TEST 2. DETERMINATION OF THE HYPOTENSIVE AND POSITIVE INOTROPIC ACTIVITY IN THE CAT
The tests were performed in cats which were anesthetized with pentobarbital sodium (40 mg/kg i.p.). The animals breathed spontaneously. The arterial blood pressure was measured in the aorta abdominalis by a Statham pressure transducer (P 23 Dc). The positive inotropic effect was determined by measuring the pressure in the left […] by means of a catheter tipmanometer (Millar PC 350 A). This contractility parameter dp/dtmax was registered by means of an analog differentiating circuit. The substances under test were injected into a vena femoralis. Physiological sodium […] solution or polydiol 200 was used as solvent.

A short description of series [1]: Acute toxicity, single oral dose. It is filed as in vivo. Particulars: mouse, in vivo, po; read-out: Acute toxicity mg/kg p.o. The procedure:
(§1) The acute toxicity of the substances tested was determined in white mice after oral adminstration of a single dose (observation time: 14 days).

The next series relates to white mice. Put plainly: Acute toxicity, single oral dose. Format: in vivo. Particulars: white mice, 14 days observation. The procedure:
as §1

Setting [2] is: 0.5 mg/kg i.v., initial phase before decrease.

By EC50 is commonly meant the midpoint of the concentration-response curve. Lower therefore signals an effect from little substance. `CC1CC(=O)NN=C1c1ccc2[nH]c(C(F)(F)F)nc2c1` (centres unmarked) [B, 2-Trifluoromethyl-5(6)-(5-methyl-3-oxo-4,5-dihydro-2H-6-pyridazinyl)-benzimidazole] registered a concentration for a half-maximal effect (EC50) with thrombocyte aggregation of 100 nM. Moreover, in the series on cats (0.1 mg/kg i.v.), the “Change of blood pressure, first value of the pair (before the slash)” value (“Change of blood pressure … (before the slash)” below) was -65 mgm Hg; the “Change of blood pressure, second value of the pair (after the slash)” value (shortened to “Change of blood pressure … (after the slash)”) was -35 mgm Hg; the “Duration of action” value was greater than 55 min; the change in vivo at 0.1 mg/kg amounted to 91%. For the same compound, in the series on cats (0.5 mg/kg i.v.), the “Change of blood pressure … (before the slash)” value is recorded as -49 mgm Hg; the “Change of blood pressure … (after the slash)” value is on record as -43 mgm Hg; the “Duration of action” value was greater than 99 min; the change in vivo at 0.5 mg/kg came out at 143%. Also, the LD50 at 336 h in series [1] is greater than 450 mg/kg. Besides, the animals died in the series on white mice (450 mg/kg p.o.) is reported as 0 out of 6.

Take `CC1CC(=O)NN=C1c1ccc2[nH]cnc2c1` (centres unmarked) [C, 5(6)-(5-Methyl-3-oxo-4,5-dihydro-2H-6-pyridazinyl)-benzimidazole]: the EC50 in the series with thrombocyte aggregation was 120 nM. Besides, in the series with cats (0.5 mg/kg i.v.), the “Change of blood pressure … (before the slash)” value is recorded as -55 mgm Hg; the “Change of blood pressure … (after the slash)” value is -48 mgm Hg; the “Duration of action” value was greater than 172 min; the change in vivo at 0.5 mg/kg was found to be 159%.

In turn, `Cc1nc2cc(C3=NNC(=O)CC3C)ccc2[nH]1` (centres unmarked) [Compound A, 2-Methyl-5(6)-(5-methyl-3-oxo-4,5-dihydro-2H-6-pyridazinyl)-benzimidazole] came in with an EC50 in the series on thrombocyte aggregation of 10 nM. For the same compound, in the series with cats (0.1 mg/kg i.v.), the “Change of blood pressure … (before the slash)” value is -26 mgm Hg; the “Change of blood pressure … (after the slash)” value was -24 mgm Hg; the “Duration of action” value was greater than 24 min; the change in vivo at 0.1 mg/kg stood at 53%. Moreover, in the series on cats (0.5 mg/kg i.v.), the “Change of blood pressure … (before the slash)” value was -35 mgm Hg; the “Change of blood pressure … (after the slash)” value was -42 mgm Hg; the “Duration of action” value is greater than 187 min; the change in vivo at 0.5 mg/kg stood at 116%. Besides, the LD50 at 336 h in series [1] was greater than 600 mg/kg. Moreover, the animals died in the series with white mice (600 mg/kg p.o.) is 1 out of 3.

Regarding `COc1ccc(-c2nc3cc(C4=NNC(=O)CC4C)ccc3[nH]2)c(OC)c1` (centres unmarked) [Compound E, 2-(2,4-Dimethoxy-phenyl)-5(6)-(5-methyl-3-oxo-4,5-dihydro-2H-6-pyridazinyl)-benzimidazole], in the series on cats (0.5 mg/kg i.v.), the “Change of blood pressure … (before the slash)” value is reported as -28 mgm Hg; the “Change of blood pressure … (after the slash)” value is recorded as -33 mgm Hg; the “Duration of action” value is greater than 55 min; the change in vivo at 0.5 mg/kg was 89%.

Regarding `CC1CC(=O)NN=C1c1ccc2[nH]c(-c3ccccc3F)nc2c1` (centres unmarked) [D, 2-(2-Fluoro-phenyl)-5(6)-(5-methyl-3-oxo-4,5-dihydro-2H-6-pyridazinyl)-benzimidazole], in the series on cats (0.5 mg/kg i.v.), the “Change of blood pressure … (after the slash)” value is on record as -10 mgm Hg; the “Duration of action” value is greater than 69 min; the change in vivo at 0.5 mg/kg turned out to be 107%. The LD50 at 336 h in series [1] was greater than 600 mg/kg. For the same compound, in the series with white mice (600 mg/kg p.o.), the animals died is reported as 0 out of 6.

As for `CSc1nc2cc(C3=NNC(=O)CC3C)ccc2[nH]1` (centres unmarked) [F, 2-Methylmercapto-5(6)-(5-methyl-3-oxo-4,5-dihydro-2H-6-pyridazinyl)-benzimidazole], in the series on cats (0.1 mg/kg i.v.), the “Change of blood pressure … (before the slash)” value is listed as -36 mgm Hg; the “Change of blood pressure … (after the slash)” value was -40 mgm Hg; the “Duration of action” value was greater than 28 min; the change in vivo at 0.1 mg/kg was determined as 51%. Besides, in the series with cats (0.5 mg/kg i.v.), the “Change of blood pressure … (before the slash)” value is given as -48 mgm Hg; the “Change of blood pressure … (after the slash)” value is given as -66 mgm Hg; the “Duration of action” value was greater than 32 min; the change in vivo at 0.5 mg/kg was 50%.

Consider `Cc1ccc(-c2nc3cc(C4=NNC(=O)CC4C)ccc3[nH]2)cc1` (centres unmarked) [H, 2-(4-Methyl-phenyl)-5(6)-(5-methyl-3-oxo-4,5-dihydro-2H-6-pyridazinyl)-benzimidazole], for which, in the series with cats (0.5 mg/kg i.v.), the “Change of blood pressure … (before the slash)” value was -10 mgm Hg; the “Change of blood pressure … (after the slash)” value was -10 mgm Hg; the “Duration of action” value was greater than 69 min; the change in vivo at 0.5 mg/kg is 118%. Besides, in the series on cats (0.5 mg/kg i.v., decrease after 1 minute), the “duration of decrease of blood pressure” value was greater than 50 min. In addition, in the series with cats (setting [2]), the “initial increase of blood pressure, first value of the pair” value came out at 33 mgm Hg and the “initial increase of blood pressure, second value of the pair” value came out at 18 mgm Hg. In addition, the LD50 at 336 h in series [1] is greater than 600 mg/kg. Moreover, in the series with white mice (600 mg/kg p.o.), the animals died is on record as 0 out of 6.
